Data: article PMC8355244, “A fragment-based approach identifies an allosteric pocket that impacts malate dehydrogenase activity” (Communications Biology, 2021)
Read-outs that look alike come from different tables or passages of the source.

Target: T1, WT PfMDH (Plasmodium falciparum, UniProt Q6VVP7)
T1 construct: The full-length WT PfMDH gene was cloned into pETM-13; made in house; host or cells: E. coli Rosetta 2 (DE3) pLysS
Assay: Activity screening of 4DT / 4-phenylthiazol-2-amine derivatives (oxidation of malate, absorbance at 340 nm)
Type: biochemical
Settings: for inhibition at 500 µM: Dunnett's multiple comparisons test, read-out: Mean Diff. (positive control vs. compound); for Slope repl1 / Slope repl2: linear regression slope of absorbance 340 nm vs time; for Slope normalized repl1: slope relative to control = 1, replicate 1; for Slope normalized repl2: slope relative to control = 1, replicate 2
Description: The oxidation of malate to oxaloacetate was assayed spectrophotometrically in flat-bottomed Corning 96-well microplates in a total volume of 250.0 µl in 50 mM glycine buffer pH 10.2[24] with an additional 400 mM NaCl for protein stability. The increase of absorbance at 340 nm was recorded in kinetic mode using a Tecan Spark multimode microplate reader at 298 K. A mastermix of 50 mM NAD+ and 44 μM PfMDH was used for both the screening and kinetics experiments. The final concentration of protein and cofactor were […], respectively. Positive control groups were set (absence of compound) in the same plate as the treated group. The absorbance from the background noise was subtracted from the data and then a linear regression model was employed in order to get the line slope from the first 5 min of the reaction. The percentage of enzymatic activity has been calculated as described by Eq. (1)1 enzymeactivity(%)=slopetreated/slopepositivecontrol*100
1.3 µL of derivatives of 4-phenylthiazol-2-amine in 100% DMSO were mixed with 237.7 µL of a mastermix of WT PfMDH previously incubated with NAD+. The final compound concentration used in this screening was 500 µM in the presence of 0.5% (v/v) DMSO. The microplate was sealed with silver foil for 1-h incubation at 25–35 °C. Finally, reactions in both the samples and control wells were started upon the addition of 13.0 µL of 5 mM malate). At the end of the experiments, the reaction of the plate was spectrophotometrically assayed at 600 nm in order to identify turbidity due to the low solubility of the compound. All measurements were performed in duplicate.

[1] = 500 µM compound, Dunnett test details, positive control mean 100, n 2, read-out: Mean 2 (mean % enzymatic activity of treated group)
[2] = 500 µM compound, control 100%, replicate 1, read-out: % enzymatic activity repl1
[3] = 500 µM compound, control 100%, replicate 2, read-out: % enzymatic activity repl2

T1 sequence (Q6VVP7 entry or part of it): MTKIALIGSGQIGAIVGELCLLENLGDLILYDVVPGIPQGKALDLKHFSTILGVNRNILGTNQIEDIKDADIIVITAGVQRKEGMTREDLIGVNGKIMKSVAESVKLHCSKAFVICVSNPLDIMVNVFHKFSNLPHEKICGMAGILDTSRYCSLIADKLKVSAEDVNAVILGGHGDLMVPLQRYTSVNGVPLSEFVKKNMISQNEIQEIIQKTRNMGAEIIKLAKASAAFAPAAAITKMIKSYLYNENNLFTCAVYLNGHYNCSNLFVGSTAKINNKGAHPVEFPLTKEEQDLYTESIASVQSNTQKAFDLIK

Q: How did the enzyme activity (500 µM compound, 0.5% DMSO, vs control, mean of n = 2) turn out when Cc1c(CO)cnn1-c1ccccc1 [compound 6b] was run?
A: no statistical difference with the control

Q: And the remaining activity at 500 µM [1]?
A: 80%

Q: What about the inhibition at 500 µM (500 µM compound) of the same compound?
A: 20%

Q: And the remaining activity at 500 µM [2]?
A: 80%

Q: And the remaining activity at 500 µM [3]?
A: 80%

Q: What about the “Slope repl1” value (500 µM compound, replicate 1) of the same compound?
A: 0.02662

Q: And the “Slope repl2” value (500 µM compound, replicate 2)?
A: 0.02788

Q: What about the “Slope normalized repl1” value (500 µM compound) of the same compound?
A: 0.7992

Q: What about the “Slope normalized repl2” value (500 µM compound) of the same compound?
A: 0.7957

Q: Which results are given for NCc1ccc(-c2csnn2)cc1 [2b]?
A: remaining activity at 500 µM [1]: 65%; inhibition at 500 µM (500 µM compound): 35%; remaining activity at 500 µM [2]: 83%; remaining activity at 500 µM [3]: 47%; Slope repl1 (500 µM compound, replicate 1): 0.02772; Slope repl2 (500 µM compound, replicate 2): 0.01654; Slope normalized repl1 (500 µM compound): 0.8322; Slope normalized repl2 (500 µM compound): 0.472; remaining activity at 500 µM (read-out: enzyme activity): 65%

Q: Which remaining activity at 500 µM [1] does the source give for O=C(O)c1cc(-c2cccs2)on1 [compound 1b] here?
A: 60%

Q: What about the inhibition at 500 µM (500 µM compound) of the same compound?
A: 40.5%

Q: And the remaining activity at 500 µM [2]?
A: 65%

Q: And the remaining activity at 500 µM [3]?
A: 54%

Q: And the “Slope repl1” value (500 µM compound, replicate 1)?
A: 0.0217

Q: What about the “Slope repl2” value (500 µM compound, replicate 2) of the same compound?
A: 0.019

Q: And the “Slope normalized repl1” value (500 µM compound)?
A: 0.6515

Q: What about the “Slope normalized repl2” value (500 µM compound) of the same compound?
A: 0.5422

Q: What about the remaining activity at 500 µM (read-out: enzyme activity) of the same compound?
A: 60%
